Results published in PMC7279002, “Novel 3′-Substituted-1′,2′,4′-Oxadiazole Derivatives of 18βH-Glycyrrhetinic Acid and Their O-Acylated Amidoximes: Synthesis and Evaluation of Antitumor and Anti-Inflammatory Potential In Vitro and In Vivo” (International Journal of Molecular Sciences, 2020).
“Also recorded” adds a separate entry of the source.

Tests used:
HeLa cells [1] = assay: Apoptosis assay by flow cytometry (annexin V-FITC/PI); type: cell-based, human; settings: 48 h
Protocol: HeLa cells were seeded in 24-well plates at density of 5 × 10^4 cells per well and incubated under standard conditions for 24 h. Next, the cells were treated by compound 5f at 7 or 10 µM for a subsequent 48 h, followed by dissociation of cell monolayers into single cells by TrypLE Express (Gibco, Taastrup, Denmark) - and washing with cold PBS. Thereafter, cells were resuspended in binding buffer at concentration of 10^6 cells/mL. After double staining with Annexin V-FITC and propidium iodide (PI) from an Annexin V-FITC Apoptosis Detection Kit (Millipore, Bedford, MA, USA), cells were analyzed using a NovoCyte Flow Cytometer (ACEA Biosciences Inc., San Diego, CA, USA). For each sample, 10,000 events were acquired.

[2] = test system: activated caspases in HeLa cells; assay: Metacaspases activity assay (FITC-VAD-FMK); type: cell-based, human; settings: dose-dependent
Protocol: The activity of caspases was determined by using a CaspACE^TM FITC-VAD-FMK (Promega, Madison, WI, USA). Briefly, HeLa cells were cultured in 24-well plates for 24 h under standard conditions and treated by 5f at 7 or 10 µM for 48 h. The cells were collected and incubated with fluorophore-conjugated pancaspase inhibitor FITC-VAD-FMK in darkness for 30 min at room temperature. After incubation, the cells were centrifuged, washed twice with PBS, and analyzed by flow cytometry. For each sample, 10,000 events were acquired.

B16 melanoma = assay: Metastatic model of murine B16 melanoma in C57Bl/6 mice; type: in vivo; settings: five injections; for decrease of the numbers of surface metastases in the lungs: day 14
Protocol: (§1) To generate a metastatic model of tumor progression, 10^5 B16 melanoma cells suspended in 0.2 mL of saline buffer were inoculated into the lateral tail vein of C57Bl/6 mice. On day 4 after tumor transplantation, mice were divided into three groups (n = 9 per group): (1) mice without treatment (control); (2) mice who received intraperitoneal (i.p.) injections of 10% Tween-80 (vehicle); and (3) mice who received i.p. injections of 5f in 10% Tween-80 at a dose of 50 mg/kg. The treatment was carried out three times a week. The total number of injections was five. Mice were sacrificed on day 14 after B16 melanoma transplantation and the lungs were collected for calculation of surface metastases.
To study the antimetastatic action of 5f, evaluation of surface metastases in lungs of B16 melanoma bearing mice was carried out. Surface metastases in the lungs were counted using a binocular microscope. Inhibition of metastases development was assessed using the metastasis inhibition index (MII), calculated according to the formula: MII=(∑n(N¯control−Nn)×100% /N¯control)/n, where N is the number of surface metastases and n is the number of mice in the analyzed group. The MII of the control group was taken as 0% and the MII reflecting the absence of metastases was taken as 100%.

HeLa cells [3] = assay: Colony-forming assay; type: cell-based, human; settings: 14 days
Protocol: HeLa cells were seeded in 96-well plates in tetraplicates at a density of 100 cells/well and treated by 5f (0.25, 0.5 µM) for 14 days under standard conditions. Then cell colonies were fixed with 4% paraformaldehyde, stained with crystal violet dye (0.1% w/v), and photographed using a Vilber Lourmat transilluminator (Marne La Vallee, France). The percentage of area covered by cell colonies was calculated using a ColonyArea ImageJ plugin [91].

[4] = test system: caspase-3/7 in HeLa cells; assay: Executioner caspases-3/7 activity assay (Caspase-Glo 3/7); type: cell-based, human; settings: 48 h
Protocol: The activity of caspase-3/7 in HeLa cells was evaluated using a Caspase-Glo® 3/7 assay kit (Promega, Madison, WI, USA) according to manufacturer’s instructions. […] After incubation, 100 µL of Caspase-Glo® 3/7 Reagent was added to each wells, the plate was carefully shaken on a plate mixer, then incubated for 30 min in darkness at room temperature. The luminescence was measured using a luminometer (CLARIOstar plate reader (BMG Labtech, Ortenberg, Germany)).

HeLa cells [5] = assay: Cell motility by xCelligence (CIM-plate); type: cell-based, human; settings: 0.5 µM, 48 h, nontoxic concentration
Protocol: HeLa cells were seeded in tetraplicate at 2 × 10^4 cells per well in the upper chamber of CIM-plates, in the presence or absence of 5f at 0.5 µM. To stimulate cell migration, the lower chamber of the CIM-plate contained 10% FBS as chemoattractant. The cell index (electrical impedance) was monitored by the Real-Time Cell Analyzer Dual Plates (RTCA DP) xCelligence System (ACEA Biosciences, San Diego, CA, USA) every 1 h for 48 h.

[6] = Toxicity assessment in B16 melanoma-bearing mice; type: in vivo; settings: five injections, 50 mg/kg i.p.
Protocol: as §1
During the experiment, general status of the animals and body weight were monitored. At the end of the experiment, organs were collected and organ indexes were calculated as (organ weight / body weight) × 100%.

With `CC1(C)C2CC[C@]3(C)C(C(=O)C=C4[C@@H]5C[C@@](C)(c6nc(-c7ccccn7)no6)CC[C@]5(C)CC[C@]43C)[C@@]2(C)CC[C@@H]1O` (stereo partly drawn) [Compound 5f, 30-nor-3β-hydroxy-11-oxo-20-(3′-(pyridin-2′′-yl)-1′,2′,4′-oxadiazol-5′-yl)-18βH-olean-12-en] the “early apoptotic cells (quadrant Q4-4)” value (HeLa cells [1]; 7 µM) was 12.5%, the “late apoptotic cells (quadrant Q4-2)” value (HeLa cells [1]; 7 µM) was 60.7% and the “early apoptotic cells (quadrant Q4-4)” value (HeLa cells [1]; 10 µM) was 8.1%. The “late apoptotic cells (quadrant Q4-2)” value (HeLa cells [1]; 10 µM) was 66.5%, the “necrotic cells (quadrant Q4-1)” value (HeLa cells [1]; 10 µM) was 14.2% and the “metacaspase activation (FITC-VAD-FMK fluorescence)” value [2] was “significantly increased the intensity of FITC fluorescence”. For the same molecule, the “mice with kidney metastases” value (B16 melanoma; 50 mg/kg i.p.) was 2/9, the “mice with liver metastases” value (B16 melanoma; 50 mg/kg i.p.) was 1/9 and the “decrease of the numbers of surface metastases in the lungs” value (B16 melanoma; 50 mg/kg i.p., compared to untreated control animals) was 4.5 times. The “decrease of the numbers of surface metastases in the lungs” value (B16 melanoma; 50 mg/kg i.p., compared to vehicle-treated animals) was 3.4 times, the “metastasis inhibition index (MII)” value (B16 melanoma; 50 mg/kg i.p., relative to untreated control) was 77.7 ± 4.7% and the “suppression of metastasis growth compared to the vehicle-treated control” value (B16 melanoma; 50 mg/kg) was 70%. The “suppression of colony formation compared to the control” value (HeLa cells [3]; 0.5 µM) was “three-fold”, the “effect on clonogenic characteristics” value (HeLa cells [3]; lower concentration (0.25 µM)) was “had no effect on the clonogenic characteristics of HeLa cells” and the “increase of caspase-3/7 activity in comparison with control” value ([4]; 5 µM) was 1.3 times. The “increase of caspase-3/7 activity in comparison with control” value ([4]; 7 µM) was 1.9 times, the “effect on motility of HeLa cells” value (HeLa cells [5]) was “statistically significant suppressed the motility of HeLa cells” and the “survival during the experiment” value [6] was “all 5f-treated mice were alive”. For the same molecule, the “toxic effects in mice (organ indexes)” value ([6]; 50 mg/kg) was “did not cause toxic and unspecific immunomodulatory effects; also recorded: without systemic toxicity”.
